Assay results from patent publication US9113629B2, “4-amino-6-(4-substituted-phenyl)-picolinates and 6-amino-2-(4-substituted-phenyl)-pyrimidine-4-carboxylates and their use as herbicides” (DOW AGROSCIENCES LLC, priority 2013, dated 2015).
Read-outs that look alike come from different tables or passages of the source.

Assays:
[1] = system: Key Grass and Sedge Weeds as well as Grass Crops; experiment: Post-emergent Test II herbicidal activity (Table 6); type: in vivo; details: post-emergence, 336 h; for pest or weed control at 70 g/ha: 70 g ai/ha; for pest or weed control at 140 g/ha: 140 g ai/ha
Method in brief: (§1)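 Foliar application at 187 L/ha to greenhouse-grown seedlings (first or second true leaf); subirrigation thereafter. Visual 0–100% injury at 14 d relative to untreated plants.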

[2] = system: Key Broadleaf Weed and Crop Species; experiment: Post-emergent Test II herbicidal activity (Table 5); type: in vivo; details: post-emergence, 336 h, 14 days after application; for pest or weed control at 70 g/ha: application rate 70 g ai/ha; for pest or weed control at 140 g/ha: application rate 140 g ai/ha
Method in brief: as §1

[3] = CYPES: yellow nutsedge (Cyperus esculentus), read-out: Visual Growth Reduction (%) 14 Days After Application, CYPES
[4] = DIGSA: crabgrass (Digitaria sanguinalis), read-out: Visual Growth Reduction (%) 14 Days After Application, DIGSA
[5] = ECHCG: barnyardgrass (Echinochloa crus-galli), read-out: Visual Growth Reduction (%) 14 Days After Application, ECHCG
[6] = ORYSA: rice (Oryza sativa), crop, read-out: Visual Growth Reduction (%) 14 Days After Application, ORYSA
[7] = SETFA: giant foxtail (Setaria faberi), read-out: Visual Growth Reduction (%) 14 Days After Application, SETFA
[8] = SORVU: grain sorghum (Sorghum vulgare), read-out: Visual Growth Reduction (%) 14 Days After Application, SORVU
[9] = TRZSS (wheat, Triticum aestivum), crop, read-out: Visual Growth Reduction (%) 14 Days After Application, TRZSS
[10] = ZEAMX: maize, corn (Zea mays), crop, read-out: Visual Growth Reduction (%) 14 Days After Application, ZEAMX
[11] = ABUTH: velvetleaf (Abutilon theophrasti), read-out: Visual Growth Reduction (%) 14 Days After Application, ABUTH
[12] = AMARE: redroot pigweed (Amaranthus retroflexus), read-out: Visual Growth Reduction (%) 14 Days After Application, AMARE
[13] = BRSNN: oilseed-rape, canola (Brassica napus), read-out: Visual Growth Reduction (%) 14 Days After Application, BRSNN
[14] = CHEAL: lambsquarters (Chenopodium album), read-out: Visual Growth Reduction (%) 14 Days After Application, CHEAL
[15] = EPHHL: wild poinsettia (Euphorbia heterophylla), read-out: Visual Growth Reduction (%) 14 Days After Application, EPHHL
[16] = HELAN: sunflower (Helianthus annuus), read-out: Visual Growth Reduction (%) 14 Days After Application, HELAN
[17] = VIOTR: wild pansy (Viola tricolor), read-out: Visual Growth Reduction (%) 14 Days After Application, VIOTR

Row | SMILES | pest or weed control at 70 g/ha [1, 3] | pest or weed control at 140 g/ha [1, 3] | pest or weed control at 70 g/ha [1, 4] | pest or weed control at 140 g/ha [1, 4] | pest or weed control at 70 g/ha [1, 5] | pest or weed control at 140 g/ha [1, 5] | pest or weed control at 70 g/ha [1, 6] | pest or weed control at 140 g/ha [1, 6] | pest or weed control at 70 g/ha [1, 7] | pest or weed control at 140 g/ha [1, 7] | pest or weed control at 70 g/ha [1, 8] | pest or weed control at 140 g/ha [1, 8] | pest or weed control at 70 g/ha [1, 9] | pest or weed control at 140 g/ha [1, 9] | pest or weed control at 70 g/ha [1, 10] | pest or weed control at 140 g/ha [1, 10] | pest or weed control at 70 g/ha [2, 11] | pest or weed control at 140 g/ha [2, 11] | pest or weed control at 70 g/ha [2, 12] | pest or weed control at 140 g/ha [2, 12] | further results
1 | C=Cc1c(C(=O)O)nc(-c2ccc(Cl)c(F)c2)c(F)c1N [Compound 214] | 95 to 100% | 95 to 100% | 0 to 29% | 0 to 29% | 95 to 100% | 95 to 100% | 0 to 29% | 45 to 59% | 0 to 29% | 30 to 44% | 75 to 84% | 85 to 94% | 0 to 29% | 0 to 29% | 85 to 94% | 85 to 94% | 95 to 100% | 95 to 100% | 95 to 100% | 95 to 100% | pest or weed control at 70 g/ha [2, 13]: 95 to 100%; pest or weed control at 140 g/ha [2, 13]: 95 to 100%; pest or weed control at 70 g/ha [2, 14]: 95 to 100%; pest or weed control at 140 g/ha [2, 14]: 95 to 100%; pest or weed control at 70 g/ha [2, 15]: 95 to 100%; pest or weed control at 140 g/ha [2, 15]: 95 to 100%; pest or weed control at 70 g/ha [2, 16]: 95 to 100%; pest or weed control at 140 g/ha [2, 16]: 95 to 100%; pest or weed control at 70 g/ha [2, 17]: 75 to 84%; pest or weed control at 140 g/ha [2, 17]: 75 to 84%
2 | C=Cc1c(C(=O)OC)nc(-c2ccc(Cl)c(F)c2)c(F)c1N [Compound 215, methyl 4-amino-6-(4-chloro-3-fluorophenyl)-5-fluoro-3-vinylpicolinate] | 95 to 100% | 95 to 100% | 0 to 29% | 0 to 29% | 0 to 29% | 95 to 100% | 0 to 29% | 0 to 29% | 0 to 29% | 0 to 29% | 45 to 59% | 60 to 74% | 0 to 29% | 0 to 29% | 30 to 44% | 45 to 59% | 95 to 100% | 95 to 100% | 95 to 100% | 95 to 100% | pest or weed control at 70 g/ha [2, 13]: 95 to 100%; pest or weed control at 140 g/ha [2, 13]: 95 to 100%; pest or weed control at 70 g/ha [2, 14]: 95 to 100%; pest or weed control at 140 g/ha [2, 14]: 95 to 100%; pest or weed control at 70 g/ha [2, 15]: 95 to 100%; pest or weed control at 140 g/ha [2, 15]: 95 to 100%; pest or weed control at 70 g/ha [2, 16]: 95 to 100%; pest or weed control at 140 g/ha [2, 16]: 95 to 100%; pest or weed control at 70 g/ha [2, 17]: 0 to 29%
